Results taken from patent publication US20260201006A1, “COACERVATE FORMULATIONS OF CXCR-ACTIVATING PEPTIDES FOR CONTROLLED RELEASE IN OPHTHALMIC AND TOPICAL TREATMENTS” (University of Pittsburgh - Of the Commonwealth System of …, priority 2022, published 2026).
Ends that are not written are not given here.

Key:
[1] = test system: environmental dry eye model; assay: Schirmer tear test (STT) in rabbit environmental dry eye model; assay type: in vivo, New Zealand white rabbits; settings: rabbits, 21 days treatment
Experimental: The 22-mer CXCL10p peptide (OH-[…]-NH2; SEQ ID NO: 5) was manufactured by PolyPeptide Inc. (San Diego, CA, USA) and purified to >95% purity as a lyophilized powder. The peptide was delivered in three different formulations. For subconjunctival injection, 3 μg of the peptide was dissolved in 100 μl of sterile PBS for weekly injections. For eye drops, 10 μg of the peptide was dissolved in 50 μl of sterile PBS for twice daily drops (BID). For the slow-release formulation, 10 μg of the peptide was dissolved in 50 μl of coacervate for BID inoculation. The control was 50 μl of sterile PBS applied BID. The coacervate is a heparin and PEAD (1:3.6) mixture with each component at a 10 mg/mL concentration in water. The CXCL10p peptide was added at a 1:10 dilution in PBS to the final concentration.
The environmental dry eye model was used to test the CXCL10p peptide. Female New Zealand white rabbits (8 per group) were used at 125-175 days old (weighing 3-5 kg) at the time of induction. For induction of dry eye, all animals were dosed with atropine sulfate (1%) in both eyes (OU) twice daily (BID) for 2-3 weeks prior to test article administration to induce KCS. In addition, humidity in the animals' housing room was maintained at ~20% throughout the study to promote eye dryness. Non-responder animals were removed from the study at the end of the induction phase. […]

[2] = test system: TNFα mRNA in human conjunctival epithelial (HCjE) cells; assay: TNFα-mediated inflammation in HCjE cells (qRT-PCR); assay type: cell-based
Experimental: Primary human conjunctival epithelial (HCjE) cells were seeded at 40,000 cells per well in a 96 well flat bottom plate. After overnight adhesion in Keratinocyte-Serum Free Media (cK-SFM), the cells were washed and exposed to starvation media (SFM) for a further 24 hours. At this time the cells were exposed to TNFα (5 ng/ml) in the presence or absence of CXCL10p peptide (200 ng/ml). After 4 hours, the cells were harvested and tested for TNFα mRNA levels with GAPDH mRNA as the control for equalization.

[3] = test system: MUC5AC transcripts; assay: Goblet cell study: qRT-PCR for MUC5AC transcripts in HCjE cells; assay type: cell-based, human; settings: 200 ng/ml or 2000 ng/ml, relative to vehicle only
Experimental: (§1) HCjE cells were maintained in complete keratinocyte serum free medium (KSFM; Invitrogen, Carlsbad, CA) in petri dishes coated with type 1 collagen. When the HCjE cells reached 50% confluence, the culture medium was replaced with growth medium (1:1 DMEM/F12:complete KSFM). When cells reached 100% confluence, the cells were fed with stratification medium (DMEM/F12+10% FBS) with or without the CXCL10p peptide (either 200 ng/ml or 2000 ng/ml). Control cells were fed with the medium supplemented with an equivalent volume of the vehicle (PBS) in which the peptide was dissolved. This medium with or without peptide was replaced every other day for 14 days, after which the cells were either stained with periodic acid-Schiff's (PAS) reagent following the standard protocol, or subjected to total RNA isolation, and qRT-PCR for MUC5AC transcripts with TATA-box binding protein (TBP) as the endogenous control.
Control and CXCR3 activating peptide-treated HCjE cells are also examined for expression of MUC5AC transcripts by qRT-PCR.

[4] = test system: HCjE cells; assay: Goblet cell study: PAS staining of stratified HCjE cells; assay type: cell-based, human; settings: 200 ng/ml or 2000 ng/ml, compared to vehicle-treated HCjE cells
Experimental: as §1
To further examine the effects of the CXCR3 activating peptide on goblet cell functioning in vitro, stratified HCjE cells are treated with 200 ng/ml CXCR3 activating peptide, 2000 ng/ml CXCR3 activating peptide, or vehicle. Cells are then stained with periodic acid-Schiff's (PAS) reagent.

Substance: OH-PESKAIKNLLKAVHKEMSKRSP-NH2 [CXCL10p peptide]
- amount of aqueous tear (STT) [1]: uncorrected
- reduction of TNFα mRNA levels ([2]; HCjE cells, TNFα 5 ng/ml, peptide 200 ng/ml, 4 hours): approximately one quarter
- TNFα mRNA levels ([2]; HCjE challenged with TNFα, concurrent exposure to peptide): dampened the TNFα mRNA levels in a reproducible and statistically significant manner
- levels of MUC5AC transcripts [3]: increased levels of MUC5AC transcripts
- frequency of intense magenta stained cell clusters (goblet cell clusters) [4]: increase in the frequency
- staining with PAS reagent (proteoglycan content) [4]: more intense staining with PAS reagent
